Patent publication US20240180900A1, “COMPOUNDS AND METHODS FOR THE TARGETED DEGRADATION OF ANDROGEN RECEPTOR” (Arvinas Operations, Inc., priority 2022, published 2024)
Several values for one entry are separate records, joined by “and”; a condition that tells them apart may be missing. Equal entries are not always repeated. Where two headings read alike, the source gives them in different places.

Columns and labels:
AR WT = target: T1, AR WT (Homo sapiens, UniProt P10275); assay: AR degradation in T-Rex-293 cell line, wild-type AR; format: cell-based; details: T-Rex-293, ELISA
T1 construct: expressed in transfected cells; host or cells: T-REx-293
T1 sequence (P10275 whole entry): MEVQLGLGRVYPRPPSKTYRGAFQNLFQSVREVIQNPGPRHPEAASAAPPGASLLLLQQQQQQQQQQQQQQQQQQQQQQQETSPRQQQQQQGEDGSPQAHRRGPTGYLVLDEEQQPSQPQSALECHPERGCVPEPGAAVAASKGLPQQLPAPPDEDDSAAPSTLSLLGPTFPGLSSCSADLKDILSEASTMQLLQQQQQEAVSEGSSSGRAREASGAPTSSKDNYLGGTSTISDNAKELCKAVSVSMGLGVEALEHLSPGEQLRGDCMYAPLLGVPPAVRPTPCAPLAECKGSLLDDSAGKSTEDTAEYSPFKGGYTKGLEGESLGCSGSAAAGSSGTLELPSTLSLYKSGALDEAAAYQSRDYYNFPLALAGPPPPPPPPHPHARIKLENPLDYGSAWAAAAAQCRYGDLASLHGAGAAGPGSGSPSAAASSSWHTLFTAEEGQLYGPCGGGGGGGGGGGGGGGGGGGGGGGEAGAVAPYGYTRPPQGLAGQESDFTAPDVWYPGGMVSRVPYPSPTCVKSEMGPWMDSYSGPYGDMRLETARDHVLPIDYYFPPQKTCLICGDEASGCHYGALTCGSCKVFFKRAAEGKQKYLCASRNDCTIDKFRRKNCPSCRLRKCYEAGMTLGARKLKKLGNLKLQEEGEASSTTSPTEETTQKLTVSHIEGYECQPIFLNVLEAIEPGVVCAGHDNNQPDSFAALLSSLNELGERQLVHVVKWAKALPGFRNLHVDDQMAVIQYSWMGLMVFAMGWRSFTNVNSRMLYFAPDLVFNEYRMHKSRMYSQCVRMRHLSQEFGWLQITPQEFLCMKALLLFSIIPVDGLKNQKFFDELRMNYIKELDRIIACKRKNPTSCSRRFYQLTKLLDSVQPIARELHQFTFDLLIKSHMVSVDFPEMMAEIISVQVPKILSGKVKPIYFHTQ
Experimental: (§1) FIG. 3 is a graph showing Compound A's ability to degrade clinically relevant mutated forms AR.
Plasmids expressing AR WT or the indicated AR mutants were stably transfected into HEK293 cells. Each cell line was treated with indicated concentrations of Compound A for 24 hours. AR levels were determined by AR ELISA without background subtraction. […]
(§2) To assess the ability of Compound A to degrade variants of the AR, vectors expressing wild-type AR or mutant AR proteins harboring clinically observed mutations in the ligand binding domain (13 with single amino acid changes or 4 with 2 amino acid changes) (Azad A. A., Volik S. V., Wyatt A. W., et al. Androgen receptor gene aberrations in circulating cell-free DNA: biomarkers of therapeutic resistance in castration-resistant prostate cancer. Clin Cancer Res. 2015; 21:2315-2324; Robinson D., Van Allen E. M., Wu Y. M., et al. Integrative clinical genomics of advanced prostate cancer. Cell. 2015; 161:1215-1228; Ledet E. M., Lilly M. B., Sonpavde G., et al. Comprehensive analysis of AR alterations in circulating tumor DNA from patients with advanced prostate cancer. Oncologist.

[1] = food/PPI effect on single-dose PK in healthy volunteers (phase 1); format: in vivo, human; details: for CL/F: read-out: CL/F_Obs, Geometric Mean (Geometric CV %) (converted); for Vd/F: read-out: Vz/F, Geometric Mean (Geometric CV %)
Experimental: The primary endpoints were AUCinf and Cmax. Additional parameters measured included AUClast and Tmax.
This phase 1, open-label study included a crossover, fed/fasted cohort and a fixed-sequence PPI cohort. For the fed/fasted cohort, healthy male volunteers received a single oral dose of Compound A 200 mg in a fasted state during treatment A and in a fed state, following a high-calorie/high-fat meal, during treatment B. Participants were randomized to a dosing sequence of treatments AB or BA. For the PPI cohort, a single oral dose of Compound A 300 mg was administered alone in a fed state during treatment C, and during treatment D, participants received esomeprazole 40 mg for 5 days prior to a single oral dose of Compound A 300 mg on day 5 in a fed state. Participants were assigned to a fixed-dosing sequence of treatments CD. There was a 24-day washout period between Compound A treatments. PK blood samples were collected predose and at selected times up to 312 hours post-Compound A dose. Primary endpoints were area under the plasma concentration-time curve from the time of dosing extrapolated to infinity (AUCinf) and maximum plasma concentration (Cmax) of Compound A. Secondary endpoints included additional PK parameters and safety and tolerability.
The effect of food and a PPI on the PK of Compound A was evaluated in healthy participants. PK results are presented in Tables 2 and 3 and are summarized here.

AR W742C = target: T2, AR W742C (Homo sapiens, UniProt P10275, W742C); assay: AR degradation in T-Rex-293 cell line, W742C; format: cell-based; details: T-Rex-293, ELISA
T2 construct: expressed in transfected cells; host or cells: T-REx-293
T2 sequence (P10275 whole entry W742C): as the sequence (P10275 whole entry) above, with W742C counted along it
From the text: as §1, §2

VCaP cells = assay: apoptosis in VCaP cells (CaspaseGlo); format: cell-based; details: Homo sapiens, CSS + 0.1 nM R1881, 72 hours, read-out: EC50, inducing apoptosis
Experimental: (§3) Intracellular prostate specific antigen (PSA) levels were determined using a PSA enzyme-linked immunosorbent assay (ELISA). […] The cell proliferation was determined using the CellTiter-Glo® assay. […] The CaspaseGlo® assay was carried out to measure the level of apoptosis in cells.
(§4) To evaluate the pharmacological effect of Compound A in vitro, PSA, cell proliferation, and apoptosis assays were carried out in VCaP cells.

AR V716M = target: T3, AR V716M (Homo sapiens, UniProt P10275, V716M); assay: AR degradation in T-Rex-293 cell line, V716M; format: cell-based; details: T-Rex-293, ELISA
T3 construct: expressed in transfected cells; host or cells: T-REx-293
T3 sequence (P10275 whole entry V716M): as the sequence (P10275 whole entry) above, with V716M counted along it
From the text: as §1, §2

PSA = assay: intracellular PSA ELISA in VCaP cells; format: cell-based; details: Homo sapiens, CSS + 0.1 nM R1881, 48 hours, read-out: IC50, inhibiting PSA expression
Experimental: as §3, §4

AR T878A/S889G = target: T4, AR T878A/S889G (Homo sapiens, UniProt P10275, S889G/T878A); assay: AR degradation in T-Rex-293 cell line, T878A/S889G; format: cell-based; details: T-Rex-293, ELISA
T4 construct: expressed in transfected cells; host or cells: T-REx-293
T4 sequence (P10275 whole entry T878A/S889G): as the sequence (P10275 whole entry) above, with T878A, S889G counted along it
From the text: as §1, §2

[2] = 200 mg, fed (test) vs fasted (reference)
[3] = 300 mg, fed, esomeprazole 40 mg
[4] = male, human, plasma, oral, 40 mg Esomeprazole + 300 mg
[5] = male, human, plasma, oral, 200 mg, Fasted
[6] = male, human, plasma, oral, 200 mg, Fed
[7] = male, human, plasma, oral, 300 mg, 300 mg Alone

COc1cc(O[C@H]2C(C)(C)[C@H](NC(=O)c3ccc(N4CCC(CN5CCN(c6ccc(C(=O)N[C@H]7CCC(=O)NC7=O)c(F)c6)CC5)CC4)cc3)C2(C)C)ccc1C#N [Compound A, 4-(4-((1-(4-(((1R,3R)-3-(4-cyano-3-methoxyphenoxy)-2,2,4,4-tetramethylcyclobutyl)carbamoyl)phenyl)piperidin-4-yl)methyl)piperazin-1-yl)-N—((S)-2,6-dioxopiperidin-3-yl)-2-fluorobenzamide]
DC50 (AR WT): 1.5 nM | delay of median Tmax, fed vs fasted ([1]; 200 mg single oral dose): ≈ 4 hours | AUCinf Geometric LS Mean Ratio (fed/fasted), relative bioavailability [1, 2]: 306.34% and 306.3% | AUClast Geometric LS Mean Ratio (fed/fasted), relative bioavailability [1, 2]: 313.03% and 313.0% | Cmax Geometric LS Mean Ratio (fed/fasted), relative bioavailability [1, 2]: 394.46% and 394.5% | AUCinf Geometric LS Mean Ratio (with esomeprazole/alone) ([1]; 300 mg, fed): 89.2% | AUClast Geometric LS Mean Ratio (with esomeprazole/alone) ([1]; 300 mg, fed): 88.1% | Cmax Geometric LS Mean Ratio (with esomeprazole/alone) ([1]; 300 mg, fed): 80.16% and 80.2% | reduction in AUCinf with esomeprazole vs Compound A alone [1, 3]: ~11% | reduction in Cmax with esomeprazole vs Compound A alone [1, 3]: ≈ 20% and ~20% | effect of esomeprazole on Compound A exposure ([1]; 300 mg, moderate-fat fed conditions): small effect, but not clinically significant | increase of extent of systemic exposure (AUCinf), fed vs fasted ([1]; high fat meal vs fasted, humans): 3.1 fold and ~3 fold | AUC(0-inf) ([1]; male, human, plasma, oral, 40 mg Esomeprazole + 300 mg, read-out: AUCinf-Obs, Geometric Mean (Geometric CV %)): 9720 ng·h/mL | AUC(0-t) ([1]; male, human, plasma, oral, 40 mg Esomeprazole + 300 mg, read-out: AUClast, Geometric Mean (Geometric CV %)): 9370 ng·h/mL | CL/F [1, 4]: 515 mL/min | Cmax ([1]; male, human, plasma, oral, 40 mg Esomeprazole + 300 mg, read-out: Cmax, Geometric Mean (Geometric CV %)): 117 ng/mL | half-life ([1]; male, human, plasma, oral, 40 mg Esomeprazole + 300 mg, read-out: T1/2, Geometric Mean (Geometric CV %) (converted)): 65.5 h | Tmax ([1]; male, human, plasma, oral, 40 mg Esomeprazole + 300 mg, read-out: Tmax): 10 h | Vd/F [1, 4]: 2920 L | AUC(0-inf) ([1]; male, human, plasma, oral, 200 mg, 200 mg alone, fasted, read-out: AUCinf, Geometric LS Mean): 3460 ng·h/mL | AUC(0-t) ([1]; male, human, plasma, oral, 200 mg, 200 mg alone, fasted, read-out: AUClast, Geometric LS Mean): 3300 ng·h/mL | Cmax ([1]; male, human, plasma, oral, 200 mg, 200 mg alone, fasted, read-out: Cmax, Geometric LS Mean): 36 ng/mL | AUC(0-inf) ([1]; male, human, plasma, oral, 200 mg, 200 mg alone, fed, read-out: AUCinf, Geometric LS Mean): 10600 ng·h/mL | AUC(0-t) ([1]; male, human, plasma, oral, 200 mg, 200 mg alone, fed, read-out: AUClast, Geometric LS Mean): 10300 ng·h/mL | Cmax ([1]; male, human, plasma, oral, 200 mg, 200 mg alone, fed, read-out: Cmax, Geometric LS Mean): 142 ng/mL | AUC(0-inf) ([1]; male, human, plasma, oral, 200 mg, Fasted, read-out: AUCinf-Obs, Geometric Mean (Geometric CV %)): 3460 ng·h/mL | AUC(0-t) ([1]; male, human, plasma, oral, 200 mg, Fasted, read-out: AUClast, Geometric Mean (Geometric CV %)): 3300 ng·h/mL | CL/F [1, 5]: 964 mL/min | Cmax ([1]; male, human, plasma, oral, 200 mg, Fasted, read-out: Cmax, Geometric Mean (Geometric CV %)): 36.1 ng/mL | half-life ([1]; male, human, plasma, oral, 200 mg, Fasted, read-out: T1/2, Geometric Mean (Geometric CV %) (converted)): 65.3 h | Tmax ([1]; male, human, plasma, oral, 200 mg, Fasted, read-out: Tmax): 7.75 h | Vd/F [1, 5]: 5450 L | AUC(0-inf) ([1]; male, human, plasma, oral, 200 mg, Fed, read-out: AUCinf-Obs, Geometric Mean (Geometric CV %)): 10600 ng·h/mL | AUC(0-t) ([1]; male, human, plasma, oral, 200 mg, Fed, read-out: AUClast, Geometric Mean (Geometric CV %)): 10300 ng·h/mL | CL/F [1, 6]: 315 mL/min | Cmax ([1]; male, human, plasma, oral, 200 mg, Fed, read-out: Cmax, Geometric Mean (Geometric CV %)): 142 ng/mL | half-life ([1]; male, human, plasma, oral, 200 mg, Fed, read-out: T1/2, Geometric Mean (Geometric CV %) (converted)): 58.7 h | Tmax ([1]; male, human, plasma, oral, 200 mg, Fed, read-out: Tmax): 12 h | Vd/F [1, 6]: 1600 L | AUC(0-inf) ([1]; male, human, plasma, oral, 200 mg, fasted, read-out: AUCinf): 3460 ng·h/mL | AUC(0-inf) ([1]; male, human, plasma, oral, 200 mg, fed (high-fat meal), read-out: AUCinf): 10600 ng·h/mL | half-life ([1]; male, human, plasma, oral, 200 mg, under both fed and fasted conditions, read-out: mean T1/2): 60 to 76 h | Tmax ([1]; male, human, plasma, oral, 300 mg with esomeprazole 40 mg, fed, read-out: median Tmax): 10 h | AUC(0-inf) ([1]; male, human, plasma, oral, 300 mg, 300 mg Alone, read-out: AUCinf-Obs, Geometric Mean (Geometric CV %)): 10900 ng·h/mL | AUC(0-t) ([1]; male, human, plasma, oral, 300 mg, 300 mg Alone, read-out: AUClast, Geometric Mean (Geometric CV %)): 10600 ng·h/mL | CL/F [1, 7]: 459 mL/min | Cmax ([1]; male, human, plasma, oral, 300 mg, 300 mg Alone, read-out: Cmax, Geometric Mean (Geometric CV %)): 146 ng/mL | half-life ([1]; male, human, plasma, oral, 300 mg, 300 mg Alone, read-out: T1/2, Geometric Mean (Geometric CV %) (converted)): 58.4 h | Tmax ([1]; male, human, plasma, oral, 300 mg, 300 mg Alone, read-out: Tmax): 7 h | Vd/F [1, 7]: 2320 L | AUC(0-inf) ([1]; male, human, plasma, oral, 300 mg, 300 mg alone, fed, read-out: AUCinf, Geometric LS Mean): 10900 ng·h/mL | AUC(0-t) ([1]; male, human, plasma, oral, 300 mg, 300 mg alone, fed, read-out: AUClast, Geometric LS Mean): 10600 ng·h/mL | Cmax ([1]; male, human, plasma, oral, 300 mg, 300 mg alone, fed, read-out: Cmax, Geometric LS Mean): 146 ng/mL | Tmax ([1]; male, human, plasma, oral, 300 mg, 300 mg alone, fed, read-out: median Tmax): 7 h | AUC(0-inf) ([1]; male, human, plasma, oral, 300 mg, 300 mg with esomeprazole, fed, read-out: AUCinf, Geometric LS Mean): 9720 ng·h/mL | AUC(0-t) ([1]; male, human, plasma, oral, 300 mg, 300 mg with esomeprazole, fed, read-out: AUClast, Geometric LS Mean): 9370 ng·h/mL | Cmax ([1]; male, human, plasma, oral, 300 mg, 300 mg with esomeprazole, fed, read-out: Cmax, Geometric LS Mean): 117 ng/mL | delay of median Tmax with esomeprazole ([1]; male, human, plasma, oral, 300 mg, fed): 3 h | Tmax ([1]; male, human, plasma, po, 200 mg, 200 mg single oral dose, fasted, read-out: median Tmax): 7.75 h | Tmax ([1]; male, human, plasma, po, 200 mg, 200 mg single oral dose, fed (high-fat meal), read-out: median Tmax): 12 h | DC50 (AR W742C): 2.7 nM | EC50 (VCaP cells): 8 nM | DC50 (AR V716M): 0.4 nM | IC50 (PSA): 4 nM | DC50 (AR T878A/S889G): 3.6 nM
